Experiments:
[1] = target: T1, Arachidonate 5-lipoxygenase-activating protein (Homo sapiens, UniProt P20292); experiment: Inhibition of FLAP in A23187-stimulated human monocytes assessed as reduction in 5-LO product formation preincubated for 15 mins followed by A23187 and arachidonic acid addition and measured after 10 mins by UV based RP-HPLC analysis; format: cell-based
T1 sequence (P20292 whole entry): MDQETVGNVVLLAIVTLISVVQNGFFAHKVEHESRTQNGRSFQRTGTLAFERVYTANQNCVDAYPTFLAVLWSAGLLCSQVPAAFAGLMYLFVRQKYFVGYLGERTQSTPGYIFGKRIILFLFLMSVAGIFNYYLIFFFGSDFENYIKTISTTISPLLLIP

[2] = target: T2, Arachidonate 5-lipoxygenase-activating protein (Homo sapiens) (UniProt P20292); experiment: Inhibition of FLAP in A23187-stimulated human neutrophils assessed as remaining enzyme activity by measuring 5-LO product formation at 0.1 uM preincubated for 15 mins followed by A23187 and arachidonic acid addition and measured after 10 mins by UV based RP-HPLC analysis (reference value: 100%)
T2 sequence (whole entry): T1 sequence (P20292 whole entry)

[3] = target: T2, Arachidonate 5-lipoxygenase-activating protein (Homo sapiens); experiment: Inhibition of FLAP in A23187-stimulated human neutrophils assessed as remaining enzyme activity by measuring 5-LO product formation at 1 uM preincubated for 15 mins followed by A23187 and arachidonic acid addition and measured after 10 mins by UV based RP-HPLC analysis (reference value: 100%)
[4] = target: T1, Arachidonate 5-lipoxygenase-activating protein; experiment: Inhibition of FLAP in A23187-stimulated human neutrophils assessed as reduction in 5-LO product formation preincubated for 15 mins followed by A23187 and arachidonic acid addition and measured after 10 mins by UV based RP-HPLC analysis
[5] = target: T3, Polyunsaturated fatty acid 5-lipoxygenase (Homo sapiens) (UniProt P09917); experiment: Inhibition of recombinant human 5-LO expressed in Escherichia coli BL21 at 10 uM incubated for 15 mins prior to prewarming for 30 secs followed by CaCl2+ and arachidonic acid addition and measured after 10 mins by RP-HPLC analysis
T3 sequence (whole entry): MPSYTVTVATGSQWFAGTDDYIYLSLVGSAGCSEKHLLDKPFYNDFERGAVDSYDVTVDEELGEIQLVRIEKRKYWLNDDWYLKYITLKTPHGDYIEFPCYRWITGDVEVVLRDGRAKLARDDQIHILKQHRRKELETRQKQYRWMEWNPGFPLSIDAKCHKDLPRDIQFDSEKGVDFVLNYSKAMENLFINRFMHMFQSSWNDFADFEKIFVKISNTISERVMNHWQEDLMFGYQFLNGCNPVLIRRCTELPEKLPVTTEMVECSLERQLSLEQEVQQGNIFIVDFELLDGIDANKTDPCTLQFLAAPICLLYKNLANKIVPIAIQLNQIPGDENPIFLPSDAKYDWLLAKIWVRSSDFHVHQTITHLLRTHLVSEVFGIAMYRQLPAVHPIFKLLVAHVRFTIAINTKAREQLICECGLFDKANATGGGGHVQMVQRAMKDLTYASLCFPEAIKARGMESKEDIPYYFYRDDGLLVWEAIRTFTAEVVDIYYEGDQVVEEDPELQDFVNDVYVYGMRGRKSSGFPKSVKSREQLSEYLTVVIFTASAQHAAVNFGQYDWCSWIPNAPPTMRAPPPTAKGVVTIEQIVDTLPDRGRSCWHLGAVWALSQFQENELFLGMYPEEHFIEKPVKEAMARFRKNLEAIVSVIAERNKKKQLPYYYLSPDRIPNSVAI

[6] = target: T4, Prostaglandin E synthase (Homo sapiens) (UniProt O14684); experiment: Inhibition of mPGES1 in IL-1beta-stimulated human A549 cell microsomal fractions assessed as reduction in PGE2 production at 3 uM preincubated for 15 mins followed by PGH2 substrate addition and measured after 1 min by RP-HPLC analysis relative to control
T4 sequence (whole entry): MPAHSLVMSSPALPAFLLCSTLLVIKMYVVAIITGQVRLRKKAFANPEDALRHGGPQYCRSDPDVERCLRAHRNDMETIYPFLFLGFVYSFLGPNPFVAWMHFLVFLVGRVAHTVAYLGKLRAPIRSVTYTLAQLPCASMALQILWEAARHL

[7] = target: T5, Polyunsaturated fatty acid 5-lipoxygenase (Homo sapiens, UniProt P09917); experiment: Inhibition of 5-LO in A23187-stimulated human neutrophils assessed as reduction in 5-LO product formation preincubated for 15 mins followed by A23187 and 10 uM arachidonic acid addition and measured after 10 mins by UV based RP-HPLC analysis
T5 sequence (P09917 whole entry): T3 sequence (whole entry)

[8] = target: T6, Leukotriene C4 synthase (Homo sapiens, UniProt Q16873); experiment: Inhibition of LTC4 synthase in LPS/fMLP-stimulated human monocytes assessed as decrease in cys-LT formation pre-incubated with LPS for 30 mins and later stimulated with fMLP for 10 mins by ELISA; format: cell-based
T6 sequence (Q16873 whole entry): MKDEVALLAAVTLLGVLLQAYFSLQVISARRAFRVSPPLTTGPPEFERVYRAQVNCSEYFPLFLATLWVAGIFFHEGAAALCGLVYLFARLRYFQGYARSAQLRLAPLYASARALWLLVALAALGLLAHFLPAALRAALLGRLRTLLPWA

- IC50 [1]: 70 nM
- Activity [2]: 32.1%
- Activity [3]: 0%
- IC50 [4]: 50 nM
- inhibition [5]: 26%
- inhibition [6]: > 50%
- IC50 [7]: 60 nM
- IC50 [8]: 30 nM
SMILES: CC(C)Cc1ccc(C(C)c2nc3cc(CCC(=O)O)ccc3n2Cc2ccccc2Cl)cc1 (stereo not drawn)

Source: ChEMBL document CHEMBL4229367, “Identification of multi-target inhibitors of leukotriene and prostaglandin E2 biosynthesis by structural tuning of the FLAP inhibitor BRP-7” (Eur J Med Chem, 2018)
